Tests used:
Assay type in all cases: biochemical
human JAK1 [1] = biological target: human JAK1 (Homo sapiens, UniProt P23458); test: In vitro JAK kinase assay (HTRF, phosphorylation of biotinylated peptide), JAK1; conditions: 1 mM ATP
How it was run: (§1)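 Baculovirus-expressed catalytic domains (JAK1 a.a. 837-1142, JAK2 a.a. 828-1132) phosphorylate 500 nM biotinylated peptide at 1 mM ATP, Tris pH 7.8, 1 h at room temperature. EDTA stop and HTRF detection with Eu-Py20/SA-APC; IC50 values derived.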

human JAK1 [2] = test: as above; conditions: ratio of JAK2 IC50 to JAK1 IC50, 1 mM ATP
How it was run: as §1

human JAK2 = human JAK2 (Homo sapiens (Human), UniProt O60674); test: In vitro JAK kinase assay (HTRF, phosphorylation of biotinylated peptide), JAK2; conditions: 1 mM ATP
Sequence of human JAK2 (O60674 828-1132): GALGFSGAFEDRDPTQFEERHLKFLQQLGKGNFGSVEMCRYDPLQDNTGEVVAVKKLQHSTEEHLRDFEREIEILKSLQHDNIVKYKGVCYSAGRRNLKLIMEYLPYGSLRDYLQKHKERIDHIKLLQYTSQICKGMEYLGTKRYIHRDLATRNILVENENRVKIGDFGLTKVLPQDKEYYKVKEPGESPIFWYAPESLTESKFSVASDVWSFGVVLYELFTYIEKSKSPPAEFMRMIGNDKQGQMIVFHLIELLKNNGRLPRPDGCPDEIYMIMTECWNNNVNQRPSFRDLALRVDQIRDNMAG
Protocol: Compounds herein were tested for inhibitory activity of JAK targets according to the following in vitro assay described in Park et al., Analytical Biochemistry 1999, 269, 94-104. The catalytic domains of human JAK1 (a.a. 837-1142), JAK2 (a.a. 828-1132) and JAK3 (a.a. 781-1124) were expressed using baculovirus in insect cells and purified. The catalytic activity of JAK1, JAK2 or JAK3 was assayed by measuring the phosphorylation of a biotinylated peptide. The phosphorylated peptide was detected by homogenous time resolved fluorescence (HTRF). IC50s of compounds were measured for each kinase in the 40 μL reactions that contain the enzyme, ATP and 500 nM peptide in 50 mM Tris (pH 7.8) buffer with 100 mM NaCl, 5 mM DTT, and 0.1 mg/mL (0.01%) BSA. For the 1 mM IC50 measurements, ATP concentration in the reactions was 1 mM. Reactions were carried out at room temperature for 1 hour and then stopped with 20 μL 45 mM EDTA, 300 nM SA-APC, 6 nM Eu-Py20 in assay buffer (Perkin Elmer, Boston, Mass.). Binding to the Europium labeled antibody took place for 40 minutes and HTRF signal was measured on a PHERA star plate reader (BMG, Cary, N.C.). The Example compounds were each tested in the Example A assay (see Table 1 for data for the compounds of the examples as tested by the assay of Example A at 1 mM ATP).

IC50 (human JAK1 [1]) | JAK2/JAK1 (human JAK1 [2]) | IC50 (human JAK2) | Compound
≤ 100 nM | >3 | ≤ 1000 nM | Cc1nn2cnc3ccsc3c2c1-c1ccc(CC#N)cc1 [Example 46, [4-(8-Methylpyrazolo[1,5-c]thieno[2,3-e]pyrimidin-9-yl)phenyl]acetonitrile]
 | >10 |  | C[C@@H](O)c1nc2cnc3ccsc3c2n1C1CCCC(CCC#N)C1 (stereo partly drawn) [Example 32, 3-(3-{2-[(1R)-1-Hydroxyethyl]-1H-imidazo[4,5-d]thieno[3,2-b]pyridin-1-yl}cyclohexyl)propanenitrile]
 | >10 |  | C[C@@H](O)c1nc2cnc3ccsc3c2n1[C@H]1CC[C@@H](C#N)CC1 [Example 7, cis-4-{2-[(1R)-1-Hydroxyethyl]-1H-imidazo[4,5-d]thieno[3,2-b]pyridin-1-yl}cyclohexanecarbonitrile]
 | >10 |  | CC(C)OC(=O)NC[C@H]1CC[C@H](n2c([C@@H](C)O)nc3cnc4ccsc4c32)CO1 [Example 76, Isopropyl [((2R,5S)-5-{2-[(1R)-1-hydroxyethyl]-1H-imidazo[4,5-d]thieno[3,2-b]pyridin-1-yl}tetrahydro-2H-pyran-2-yl)methyl]carbamate]
 | >10 |  | CS(=O)(=O)NCc1nc2cnc3ccsc3c2n1[C@H]1CC[C@H](CC#N)CC1 [Example 18, N-({1-[trans-4-(Cyanomethyl)cyclohexyl]-1H-imidazo[4,5-d]thieno[3,2-b]pyridin-2-yl}methyl)methanesulfonamide]
 | >10 |  | C[C@@H](O)c1nc2cnc3ccsc3c2n1[C@H]1CCN(CCCCC#N)C1 [Example 66, 5-((3S)-3-{2-[(1R)-1-Hydroxyethyl]-1H-imidazo[4,5-d]thieno[3,2-b]pyridin-1-yl}pyrrolidin-1-yl)pentanenitrile]
 | >10 |  | CCOC(=O)NC[C@H]1CC[C@H](n2c(CC#N)nc3cnc4ccsc4c32)CC1 [Example 87, Ethyl ({trans-4-[2-(cyanomethyl)-1H-imidazo[4,5-d]thieno[3,2-b]pyridin-1-yl]cyclohexyl}methyl)carbamate]
 | >7 |  | Cc1nc2cnc3ccsc3n2c1-c1ccc(CC#N)cc1 [Example 33, [4-(7-Methylimidazo[1,2-a]thieno[3,2-e]pyrazin-8-yl)phenyl]acetonitrile]
 | >7 |  | Cc1nc2cnc3ccsc3c2n1[C@H]1CC[C@H](CC#N)CC1 [Example 48, [trans-4-(2-Methyl-1H-imidazo[4,5-d]thieno[3,2-b]pyridin-1-yl)cyclohexyl]acetonitrile]
 | >10 |  | C[C@@H](O)c1nc2cnc3ccsc3c2n1[C@H]1CCN(CCC#N)C1 [Example 62, 3-((3S)-3-{2-[(1R)-1-Hydroxyethyl]-1H-imidazo[4,5-d]thieno[3,2-b]pyridin-1-yl}pyrrolidin-1-yl)propanenitrile]
 | >4 |  | CS(=O)(=O)NCc1nc2cnc3ccsc3c2n1[C@H]1CC2CCC1C2 (stereo partly drawn) [Example 22, N-((1-((2S)-Bicyclo[2.2.1]heptan-2-yl)-1H-imidazo[4,5-d]thieno[3,2-b]pyridin-2-yl)methyl)methanesulfonamide]
 | >10 |  | C[C@@H](O)c1nc2cnc3ccsc3c2n1C1CCNCC1F (stereo partly drawn) [9 (2nd peak), (1R)-1-[1-(3-Fluoropiperidin-4-yl)-1H-imidazo[4,5-d]thieno[3,2-b]pyridin-2-yl]ethanol]
 | >10 |  | N#CC[C@H]1CC[C@H](n2c(C3CC3)nc3cnc4ccsc4c32)CO1 [Example 43, [(2R,5S)-5-(2-Cyclopropyl-1H-imidazo[4,5-d]thieno[3,2-b]pyridin-1-yl)tetrahydro-2H-pyran-2-yl]acetonitrile]
 | >9 |  | CN1CC(c2nc3cnc4ccsc4c3n2[C@H]2CC[C@H](CC#N)CC2)C1 [Example 29, {trans-4-[2-(1-Methylazetidin-3-yl)-1H-imidazo[4,5-d]thieno[3,2-b]pyridin-1-yl]cyclohexyl}acetonitrile]
 | >10 |  | N#CCc1nc2cnc3ccsc3c2n1[C@H]1CC[C@H](CC#N)CC1 [Example 90, {1-[trans-4-(Cyanomethyl)cyclohexyl]-1H-imidazo[4,5-d]thieno[3,2-b]pyridin-2-yl}acetonitrile]
 | >10 |  | CC(F)c1nc2cnc3ccsc3c2n1[C@H]1CC[C@H](CC#N)OC1 (stereo partly drawn) [Example 71, {(2R,5S)-5-[2-(1-Fluoroethyl)-1H-imidazo[4,5-d]thieno[3,2-b]pyridin-1-yl]tetrahydro-2H-pyran-2-yl}acetonitrile]

Compound | IC50 (human JAK1 [1]) | JAK2/JAK1 (human JAK1 [2]) | IC50 (human JAK2)
((1R,2S,4S)-2-Hydroxy-4-{2-[(1R)-1-hydroxyethyl]-1H-imidazo[4,5-d]thieno[3,2-b]pyridin-1-yl}cyclohexyl)acetonitrile trifluoacetate and ((1S,2R,4R)-2-hydroxy-4-{2-[(1R)-1-hydroxyethyl]-1H-imidazo[4,5-d]thieno[3,2-b]pyridin-1-yl}cyclohexyl)acetonitrile trifluoacetate [37 (first peak)] |  | >10 | 
[(1R,2S,4S)-4-(2-Ethyl-1H-imidazo[4,5-d]thieno[3,2-b]pyridin-1-yl)-2-hydroxycyclohexyl]acetonitrile and [(1S,2R,4R)-4-(2-ethyl-1H-imidazo[4,5-d]thieno[3,2-b]pyridin-1-yl)-2-hydroxycyclohexyl]acetonitrile [40 (first peak)] |  | >10 | 

— US10370387B2, “Tricyclic fused thiophene derivatives as JAK inhibitors” (Incyte Corporation, priority 2012, dated 2019)
